{"source": "patent US8790889B2", "about": "“Neuronal stimulation” (The University of Queensland, priority 2009, dated 2014)", "key": {"[1]": {"test_system": "adult hippocampal precursors", "assay": "Adult hippocampal neurosphere culture", "type": "cell-based, mouse", "conditions": "for effect of antagonist on norepinephrine-stimulated increase in neurosphere numbers: in presence of norepinephrine, prazosin 100 nM, propranolol 1 μM, CGP20712 10 nM, SR59230A 10 nM; for effect of antagonist on norepinephrine-stimulated increase in neurosphere numbers / increase in neurosphere numbers compared to the control: yohimbine 1 μM, ICI118,551 10 nM; for neurosphere numbers with antagonist alone / increase in neurosphere numbers compared to the control: no norepinephrine, antagonist alone", "protocol": "Animals were treated in accordance with the Australian Code of Practice for the Care and Use of Animals for Scientific Purposes and ethics approval was obtained for all experiments from the Animal Ethics Committee of the University of Queensland. 8-10 week old male C57/B16 mice were killed by cervical dislocation and their brains removed. Brains were bisected along the midline in the sagittal plane. The hippocampi were isolated from the overlying cortex and minced using a scalpel blade. Minced tissue was digested in 0.1% papain (Invitrogen, Melbourne, Australia) for 20 minutes at 37° C., after which an excess of NeuroCult NSC basal medium (Stem Cell Technologies, Vancouver, Canada) was added to halt the digestion. Tissue was then centrifuged at 100 rcf for 5 minutes, the resulting pellet was resuspended in 1 ml of complete neurosphere medium, and a single cell suspension was achieved by gentle trituration. The cells were filtered through a 40 μm cell sieve (BD Biosciences, Sydney, Australia) and resuspended in NeuroCult NSC basal medium containing NeuroCult proliferation supplements (Stem Cell Technologies), 2% bovine serum albumin (Invitrogen) and 2 μg/ml heparin (Sigma-Aldrich, Sydney, Australia). The growth factors added were 20 ng/ml EGF (receptor grade, BD Biosciences) and 10 ng/ml bFGF (recombinant bovine, Roche, Basel, Switzerland). The cells were then plated in a 96-well plate and cultured in complete neurosphere medium containing EGF and bFGF, in the presence or absence of 5-hydroxytryptamine hydrochloride (serotonin; 100 nM, 1 μM, 10 μM), L-(−)-noradrenaline (+)-bitartrate salt monohydrate (norepinephrine; 100 nM, 1 μM, 10 μM) or KCl (15 mM). The adrenergic receptor antagonists used were prazosin (100 nM), yohimbine (1 μM), propranolol (1 μM), CGP20712 (10 nM), ICI118,551 (10 nM) and SR59230A (10 nM). BRL37344 was used as a selective β3 adrenergic receptor agonist. All the compounds were purchased from Sigma-Aldrich. The number of primary neurospheres was counted on day 10-13 and expressed as a percentage relative to the control."}, "[2]": {"test_system": "stem cells in the hippocampus", "assay": "i.p. treatment for 7 days, hippocampal neurospheres", "type": "in vivo, mouse", "conditions": "10 mg/kg i.p. for 7 days", "protocol": "(§1) Neurospheres with a diameter greater than […] may be derived from BRL37344 treated mice."}, "hippocampal precursors [3]": {"test_system": "hippocampal precursors", "assay": "Intrahippocampal infusion for 7 days, hippocampal neurospheres", "type": "in vivo, mouse", "conditions": "10 μM intrahippocampal infusion for 7 days", "protocol": "as §1"}, "hippocampal precursors [4]": {"test_system": "hippocampal precursors", "assay": "Slice-sphere assay (hippocampal organotypic slices, then neurosphere culture)", "type": "cell-based, rat", "conditions": "for neurosphere frequency: FIG. 8b, 1 μM; for effect on precursor numbers / frequency of neurosphere generation: 1 μM or 10 μM", "protocol": "D-glucose (Sigma-Aldrich) was added to the medium to a final concentration of 5 mM. Four filters, each containing 6-7 hippocampal slices, were generated from a single animal. Plates were incubated at 37° C. in a humidified 5% CO2 incubator and the slices were cultured for 6 days. To assess the influence of specific compounds on hippocampal precursor proliferation in the slice culture, compounds were added to the complete medium at the doses described below. Two filters were treated with the compounds for each dose per experiment. On every alternate day half the medium was removed and replaced with fresh medium containing the compounds. Slices were treated with serotonin at 10 μM and 100 μM and norepinephrine at 1 μM, 10 μM and 100 μM. […] Propranolol (10 μM) was used to block β adrenergic receptors in the slices. On the 6th day of culture, the hippocampal slices from each treatment group were pooled and the tissue was minced using a scalpel blade. Minced tissue was then treated with 0.1% trypsin-EDTA (Invitrogen) for 5 minutes at 37° C. […] A single cell suspension was achieved by gentle trituration. The total number of viable cells in an aliquot was counted on a haemocytometer based on the exclusion of 0.08% trypan blue (Sigma-Aldrich). The cells were then cultured in complete neurosphere medium containing EGF and bFGF. […] For each experiment there were 20 wells plated for each of the doses per treatment group. The plates were incubated at 37° C. in a humidified 5% CO2 incubator."}}, "note": "Entries after “also recorded” stand apart in the source; their conditions may differ.", "data": [{"molecule": "CC(Cc1ccc(OCC(=O)[O-])cc1)NCC(O)c1cccc(Cl)c1.[Na+]", "note": "(centres unmarked) [BRL37344]", "values": [{"measurement": "neurosphere numbers compared to norepinephrine treatment", "setting": "[1]; 1 μM and 10 μM, comparison 10 μM norepinephrine", "value": "increase in neurosphere numbers similar to that observed in the presence of 10 μM norepinephrine"}, {"measurement": "large neurospheres obtained", "setting": "[2]", "value": "increase in, large neurospheres; also recorded: increase in large neurospheres"}, {"measurement": "activation of stem cells in the hippocampus", "setting": "[2]; 8 weeks old C57/B16 mice, n=7", "value": "significant activation of stem cells in the hippocampus"}, {"measurement": "activation of hippocampal precursors", "setting": "hippocampal precursors [3]", "value": "activation of hippocampal precursors"}, {"measurement": "number of neurospheres with a diameter greater than 100 μM", "setting": "hippocampal precursors [3]", "value": "much greater"}, {"measurement": "total number of neurospheres derived from treated mice", "setting": "hippocampal precursors [3]", "value": "greater than when saline is infused"}]}, {"molecule": "Cn1cc(C(F)(F)F)nc1-c1ccc(OCC(O)CNCCOc2ccc(O)c(C(N)=O)c2)cc1", "note": "(centres unmarked) [CGP20712, 2-hydroxy-5-(2-[{2-hydroxy-3-(4-[1-methyl-4-trifluoromethyl-2-imidazolyl]phenoxy)-propyl}amino]ethoxy)benzamide]", "values": [{"measurement": "effect of antagonist on norepinephrine-stimulated increase in neurosphere numbers", "setting": "[1]", "value": "no such effect"}]}, {"molecule": "Cc1ccc(OCC(O)C(C)NC(C)C)c2c1CCC2", "note": "(centres unmarked) [ICI118,551]", "values": [{"measurement": "neurosphere numbers with antagonist alone", "setting": "[1]", "value": "significant increase"}, {"measurement": "increase in neurosphere numbers compared to the control", "setting": "[1]", "value": "about 34%"}]}, {"molecule": "[Cl-].[K+]", "note": "[KCl]", "values": [{"measurement": "increase in neurosphere numbers", "setting": "[1]; KCl 15 mM alone", "value": 2, "unit": "fold"}]}, {"molecule": "CCc1ccccc1OC[C@@H](O)CN[C@H]1CCCc2ccccc21.O=C(O)C(=O)O", "note": "[SR59230A, 3-(2-ethylphenoxy)-1([1s]-1,2,3,4-tetrahydronaphth-1-ylamino)-2S-propanol oxalate]", "values": [{"measurement": "effect of antagonist on norepinephrine-stimulated increase in neurosphere numbers", "setting": "[1]", "value": "completely blocked; also recorded: completely inhibited"}]}, {"molecule": "CNCC[C@@H](Oc1ccccc1C)c1ccccc1", "note": "[atomoxetine]", "values": [{"measurement": "neurosphere frequency", "setting": "hippocampal precursors [4]", "value": "significant increase"}, {"measurement": "neurosphere frequency as percentage of the control", "setting": "hippocampal precursors [4]; slices treated at 1 μM", "value": "147.0±15.0", "unit": "%"}]}, {"molecule": "CN(C)CCCC1(c2ccc(F)cc2)OCc2cc(C#N)ccc21", "note": "(centres unmarked) [citalopram]", "values": [{"measurement": "neurosphere frequency as percentage of the control", "setting": "hippocampal precursors [4]; slices treated at 10 μM", "value": "113.8±9.9", "unit": "%"}, {"measurement": "neurosphere frequency as percentage of the control", "setting": "hippocampal precursors [4]; slices treated at 100 μM", "value": "103.8±3.8", "unit": "%"}]}, {"molecule": "CNCCC(Oc1ccc(C(F)(F)F)cc1)c1ccccc1", "note": "(centres unmarked) [fluoxetine]", "values": [{"measurement": "effect on precursor numbers / frequency of neurosphere generation", "setting": "hippocampal precursors [4]", "value": "no significant change"}, {"measurement": "effect on precursor numbers / frequency of neurosphere generation", "setting": "hippocampal precursors [4]; listed as Fluoxetine", "value": "no effect"}]}, {"molecule": "CNCCCC12CCC(c3ccccc31)c1ccccc12", "note": "[maprotiline]", "values": [{"measurement": "neurosphere frequency", "setting": "hippocampal precursors [4]", "value": "significant increase"}, {"measurement": "neurosphere frequency as percentage of the control", "setting": "hippocampal precursors [4]; slices treated at 1 μM", "value": "258.5±25.5", "unit": "%"}]}, {"molecule": "COc1cc2nc(N3CCN(C(=O)c4ccco4)CC3)nc(N)c2cc1OC", "note": "[prazosin]", "values": [{"measurement": "effect of antagonist on norepinephrine-stimulated increase in neurosphere numbers", "setting": "[1]", "value": "failed to inhibit"}]}, {"molecule": "CC(C)NCC(O)COc1cccc2ccccc12", "note": "(centres unmarked) [propranolol]", "values": [{"measurement": "neurosphere numbers with antagonist alone", "setting": "[1]", "value": "no toxic effect"}, {"measurement": "effect of antagonist on norepinephrine-stimulated increase in neurosphere numbers", "setting": "[1]", "value": "reduced the norepinephrine-mediated response back to control levels; also recorded: completely inhibited"}, {"measurement": "effect on norepinephrine-mediated increase in precursor activity", "setting": "hippocampal precursors [4]; propranolol 10 μM in presence of norepinephrine", "value": "completely inhibit; also recorded: abolished"}, {"measurement": "effect on reboxetine-mediated increase in precursor activity", "setting": "hippocampal precursors [4]; propranolol 10 μM in presence of reboxetine", "value": "completely inhibit; also recorded: abolished"}]}, {"molecule": "CCOc1ccccc1OC(c1ccccc1)C1CNCCO1", "note": "(centres unmarked) [reboxetine]", "values": [{"measurement": "frequency of neurosphere formation", "setting": "hippocampal precursors [4]; 10 μM and 100 μM", "value": "significantly enhanced"}, {"measurement": "neurosphere frequency as percentage of the control", "setting": "hippocampal precursors [4]; slices treated at 1 μM", "value": "104.5±9.6", "unit": "%"}, {"measurement": "increase in frequency of neurosphere formation", "setting": "hippocampal precursors [4]; slices treated at 10 μM", "value": 40, "unit": "%"}, {"measurement": "neurosphere frequency as percentage of the control", "setting": "hippocampal precursors [4]; slices treated at 100 μM", "value": "265.0±11.7", "unit": "%"}]}, {"molecule": "Cl.NCCc1c[nH]c2ccc(O)cc12", "note": "[serotonin, 5-hydroxytryptamine hydrochloride]", "values": [{"measurement": "neurosphere numbers compared to the control", "setting": "[1]; 100 nM, 1 μM or 10 μM, EGF and bFGF present", "value": "no change"}, {"measurement": "effect on frequency of neurosphere formation", "setting": "hippocampal precursors [4]; 10 μM or 100 μM", "value": "no effect"}, {"measurement": "neurosphere frequency as percentage of the control", "setting": "hippocampal precursors [4]; slices treated at 10 μM", "value": "90.07±5.4", "unit": "%"}, {"measurement": "neurosphere frequency as percentage of the control", "setting": "hippocampal precursors [4]; slices treated at 100 μM", "value": "102.81±31.7", "unit": "%"}]}, {"molecule": "COC(=O)[C@@H]1[C@H]2C[C@H]3c4[nH]c5ccccc5c4CCN3C[C@@H]2CC[C@@H]1O", "note": "[yohimbine]", "values": [{"measurement": "neurosphere numbers with antagonist alone", "setting": "[1]", "value": "slight but significant increase"}, {"measurement": "increase in neurosphere numbers compared to the control", "setting": "[1]", "value": 40, "unit": "%"}, {"measurement": "effect of antagonist on norepinephrine-stimulated increase in neurosphere numbers", "setting": "[1]", "value": "failed to inhibit"}]}]}
